In patent US20040067991A1, “Tetrahydrobenzothiazole analogues as neuroprotective agents” (priority 2003, published 2004):
Structures can show the parent of a compound that is named as a salt. Where two headings read alike, the source gives them in different places.

Legend:
PC12 cells = test: Protection of PC12 cells against camptothecin-induced cell death (BCECF AM fluorescence); format: cell-based
Protocol: The 2-amino-4,5,6,7-tetrahydrobenzothiazole hydrogen iodide, 1-(4-methylphenyl)-2-(4,5,6,7-tetrahydro-2-imino-3(2H)-benzothiazolyl)-ethanone hydrobromide, and analogues were tested for their ability to protect PC12 cells against the toxic agent, camptothecin. PC12 cells were cultured in RPMI1640 media containing 10% horse serum and 5% fetal calf serum (37° C., pH 7.4) until confluent. Thereafter, 2.2×10^4 cells per mL were added to each trough of a 96 well plate (approximately 6,270 cells per well 285 μL) and were left to grow for 12 h. The media then was removed and was replaced by media with and without the compounds to be tested, including precursor, PFTα, and numerous analogues (concentration 100-400 nM, prepared in DMSO to a final dilution of 0.4%, 8 wells per concentration). Following 6 h of incubation, camptothecin (40 μM) was added to 4 of each 8 wells, and the cells were incubated for a further 24 h. Cells then were gently washed twice with phosphate buffered saline (PBS: 0.1 M, 37° C., pH 7.4) and were incubated in PBS containing the live-cell indicator dye, 2′,7′-bis(2-carboxyethey)-5-6-carboxyfluorescein AM ester (BCECF AM: 5 μM) (Molecular Probes, CA), for 45 min in minimal light. This fluorescent dye was taken up and retained by live cells. Finally, the cells were washed twice in PBS and their fluorescence then was quantified (excitation: 490 nm, emission: 535 nm, Perkin Elmer HTS 7000).
PC12 cell survival was also assessed. One hundred percent cell survival was determined from cells incubated in the absence of both any compound and camptothecin. […] Compound-induced toxicity was assessed by comparing cells treated with compound at various concentrations in the absence of camptothecin with cells incubated in the absence of both compound and camptothecin. […] Compound-induced cellular protection was assessed by comparing cells incubated with camptothecin with cells incubated with camptothecin in the presence of compound, in a concentration-dependent manner.

rat hippocampal neurons = test: Neuronal survival assay in cultured hippocampal neurons treated with camptothecin or etoposide; format: cell-based; conditions: for neurons killed / protection of primary hippocampal cells against death induced by camptothecin and etoposide (in words): camptothecin 5 μM, etoposide 2.5 μM; for neurons killed: hippocampal neurons; for neuroprotection of hippocampal neurons against camptothecin (in words): 100 nM, added 1 h before camptothecin 5 μM
Protocol: 2-amino-4,5,6,7-tetrahydrobenzothiazole hydrogen and 1-(4-methylphenyl)-2-(4,5,6,7-tetrahydro-2-imino-3(2H)-benzothiazolyl)-ethanone hydrobromide and their analogues were assessed for their ability to protect rat hippocampal cells in culture from camptothecin ([…]).
Dissociated hippocampal cell cultures were established from embryonic day 18 Sprague-Dawley rats (Harlan, Inc.) as described previously. […] 77:220-28. Cells were grown in polyethyleneimine-coated plastic dishes or 22 m^2 glass coverslips, and incubated in Neurobasal medium containing B27 supplements, 2 mM L-glutamine, 25 mg/ml gentamycin, 1 mM Hepes (Gibco BRL) and 0.001% gentamicin sulfate. All experiments were performed using 9-10 day-old cultures. Camptothecin and etoposide (Signia) were prepared as 500× stocks in DMSO. Neuron survival was quantified by established methods. […] Briefly, viable neurons in premarked fields (10× objective) were counted before experimental treatment and at specified time points thereafter. Neurons with intact neurites of uniform diameter and soma with a smooth round appearance were considered viable. In contrast neurons with fragmented neurites and vacuolated soma were considered non-viable.

[1] = 6 h preincubation with compound, camptothecin 40 μM for 24 h; read-out: PD50; concentration of compounds required to induce 50% protection (PC50) of PC12 cells from camptothecin-induced cell-death
[2] = compounds 100-400 nM, camptothecin 40 μM 24 h

Molecule | EC50 (PC12 cells; [1]) [nM] | further results
Br.COc1ccccc1C(=O)Cn1c2c(sc1=N)CCCC2 [Compound 7, 1-(2-methoxylphenyl)-2-(4,5,6,7-tertahydro-2-imino-3(2H)-benzothiazolyl)-ethanone hydrobromide] | 348 | protection of PC12 cells against camptothecin-induced death (in words) (PC12 cells; [2]): highly potent
N=c1sc2c(n1Cc1ccc([N+](=O)[O-])cc1)CCCC2 [Compound 20, 2-imino-3-(4′-nitrobenzyl)-4,5,6,7-tetrahydro-3(2H)-benzothiazole hydrobromide] | 144 | –
I.Nc1nc2c(s1)CCCC2 [precursor, 2-amino-4,5,6,7-tetrahydrobenzothiazole hydrogen iodide] | – | toxicity when administered alone to hippocampal cells (rat hippocampal neurons; concentrations up to 400 nM): neither PFTα (5) nor its precursor were toxic; protection of PC12 cells against camptothecin-induced death (in words) (PC12 cells; [2]): low activity; EC50 (PC12 cells; read-out: PD50; concentration of compounds required to induce 50% protection (PC50) of PC12 cells from camptothecin-induced cell-death; 6 h preincubation with compound, camptothecin 40 μM for 24 h): 5750 nM
COc1cc([C@@H]2c3cc4c(cc3[C@@H](O[C@@H]3O[C@@H]5CO[C@@H](C)O[C@H]5[C@H](O)[C@H]3O)[C@H]3COC(=O)[C@H]23)OCO4)cc(OC)c1O [etoposide, reference compound] | – | neurons killed (rat hippocampal neurons): approximately 85%
CC(C)(C)c1ccc(Cn2c3c(sc2=N)CCCC3)cc1 [Compound 19, 2-imino-3-(4′-tert-butylbenzyl)-4,5,6,7-tetrahydro-3(2H)-benzothiazole hydrobromide] | 315 | –
CC[C@@]1(O)C(=O)OCc2c1cc1n(c2=O)Cc2cc3ccccc3nc2-1 [camptothecin, reference compound] | – | neurons killed (rat hippocampal neurons): approximately 85%
Cc1ccc(-c2cn3c4c(sc3n2)CCCC4)cc1 [Compound 29, 2-(4′-methylphenyl)-5,6,7,8-tetrahydroimidazo[2,1-b]benzothiazole] | 214 | –
2-imino-3-(naphthalenylmethyl-4,5,6,7-tetrahydro-3(2H)-benzothiazole hydrobromide [Compound 24] | 318 | –
2-imino-3-(4′-fluorobenzyl)-4,5,6,7-tetrahydro-3(2H)-benzothiazole hydrobromide [Compound 16] | 154 | –
Br.COc1ccc(C(=O)Cn2c3c(sc2=N)CCCC3)cc1 [Compound 6, 1-(4-methoxylphenyl)-2-(4,5,6,7-tertahydro-2-imino-3(2H)-benzothiazolyl)-ethanone hydrobromide] | 182 | protection of PC12 cells against camptothecin-induced death (in words) (PC12 cells; [2]): highly potent
N=c1sc2c(n1CC(=O)c1ccc(F)cc1)CCCC2 [Compound 4, 1-(4-fluorophenyl)-2-(4,5,6,7-tertahydro-2-imino-3 (2H)-benzothiazolyl)-ethanone hydrobromide] | 379 | –
Cc1ccc(C(=O)Cn2c3c(oc2=N)CCCC3)cc1 [Compound 27, 1-(4-methylphenyl)-2-(4,5,6,7-tetrahydro-2-imino-3(2H)-benzoxazolyl)ethanone hydrobromide] | 69 | –
ethyl 2-(4,5,6,7-tertahydro-2-imino-3(2H)-benzothiazolyl)-acetate hydrobromide [Compound 2] | 595 | –
N=c1sc2c(n1CC(=O)c1ccc([N+](=O)[O-])cc1)CCCC2 [Compound 11, 1-(4-nitrophenyl)-2-(4,5,6,7-tertahydro-2-imino-3(2H)-benzothiazolyl)ethanone hydrobromide] | 410 | –
N=c1sc2c(n1Cc1cccc(Cn3c4c(sc3=N)CCCC4)n1)CCCC2 [Compound 30, 2,6-Bis[(4,5,6,7-tetrahydro-2-imino-3(2H)-benzothiazolyl)methyl]pyridine Dihydrobromide] | 133 | –
1-(4-phenylphenyl)-2-(4,5,6,7-tertahydro-2-imino-3(2H)-benzothiazolyl)-ethanone hydrobromide [Compound 10] | 767 | –
CCC(=O)Cn1c2c(oc1=N)CCCC2 [Compound 28, 1-(4,5,6,7-tertahydro-2-imino-3(2H)-benzoxazolyl)-2-butanone hydrobromide] | 143 | –
2-Imino-3-butyl-4,5,6,7-tetrahydro-3(2H)-benzothiazole hydrobromide [Compound 26] | 395 | –
N=c1sc2c(n1Cc1ccc(F)cc1F)CCCC2 [Compound 17, 2-imino-3-(2′,4′-difluorobenzyl)-4,5,6,7-tetrahydro-3(2H)-benzothiazole hydrobromide] | 93 | –
N=c1sc2c(n1CCc1ccccc1)CCCC2 [Compound 25, 2-imino-3-phenylethyl-4,5,6,7-tetrahydro-3(2H)-benzothiazole] | 1100 | –
Cc1ccc(Cn2c3c(sc2=N)CCCC3)cc1 [Compound 18, 2-imino-3-(4′-methylbenzyl)-4,5,6,7-tetrahydro-3(2H)-benzothiazole hydrobromide] | 1000 | –
Br.N=c1sc2c(n1CC(=O)c1ccc(Cl)cc1)CCCC2 [Compound 9, 1-(4-chlorophenyl)-2-(4,5,6,7-tertahydro-2-imino-3(2H)-benzothiazolyl)ethanone hydrobromide] | 187 | neuroprotection of hippocampal neurons against camptothecin (in words) (rat hippocampal neurons): significantly protected; protection of primary hippocampal cells against death induced by camptothecin and etoposide (in words) (rat hippocampal neurons; 24 h): highly potency; protection of PC12 cells against camptothecin-induced death (in words) (PC12 cells; [2]): highly potent
2-imino-3-(4′-cyanobenzyl)-4,5,6,7-tetrahydro-3(2H)-benzothiazole hydrobromide [Compound 21] | 418 | –
Br.COc1cccc(C(=O)Cn2c3c(sc2=N)CCCC3)c1 [Compound 8, 1-(3-methoxylphenyl)-2-(4,5,6,7-tertahydro-2-imino-3(2H)-benzothiazolyl)-ethanone hydrobromide] | 418 | neuroprotection of hippocampal neurons against camptothecin (in words) (rat hippocampal neurons): significantly protected; protection of primary hippocampal cells against death induced by camptothecin and etoposide (in words) (rat hippocampal neurons; 24 h): highly potency
N=c1sc2c(n1Cc1ccc(C(F)(F)F)cc1)CCCC2 [Compound 22, 2-imino-3-(4′-trifluorobenzyl)-4,5,6,7-tetrahydro-3(2H)-benzothiazole hydrobromide] | 327 | –
Br.N=c1sc2c(n1CC1CC1)CCCC2 [Compound 15, 3-(cyclopropylmethyl)-4,5,6,7-tetrahydro-2(3H)-benzothiazolimine Hydrobromide] | 728 | neuroprotection of hippocampal neurons against camptothecin (in words) (rat hippocampal neurons): could not protect neurons effectively; neuroprotection of hippocampal neurons against etoposide (in words) (rat hippocampal neurons; added 1 h before etoposide 2.5 μM): activity comparable to PFTα; protection of primary hippocampal cells against death induced by camptothecin and etoposide (in words) (rat hippocampal neurons; 24 h): highly potency; neuronal survival (rat hippocampal neurons; pretreated with 100 nM of analogue, then camptothecin (5 μM), 24 h): 23%
